The experiment concerns the target Delta-type opioid receptor (Mus musculus, UniProt P32300). Description: Agonist activity at delta opioid receptor in ICR mouse isolated vas deferens assessed as inhibition of electrically-stimulated muscle contraction.

The record followed here is BindingDB's records for doi:10.1021/acs.jmedchem.5b01170 (University of Arizona, 2015).

Delta-type opioid receptor, sequence (P32300 whole entry): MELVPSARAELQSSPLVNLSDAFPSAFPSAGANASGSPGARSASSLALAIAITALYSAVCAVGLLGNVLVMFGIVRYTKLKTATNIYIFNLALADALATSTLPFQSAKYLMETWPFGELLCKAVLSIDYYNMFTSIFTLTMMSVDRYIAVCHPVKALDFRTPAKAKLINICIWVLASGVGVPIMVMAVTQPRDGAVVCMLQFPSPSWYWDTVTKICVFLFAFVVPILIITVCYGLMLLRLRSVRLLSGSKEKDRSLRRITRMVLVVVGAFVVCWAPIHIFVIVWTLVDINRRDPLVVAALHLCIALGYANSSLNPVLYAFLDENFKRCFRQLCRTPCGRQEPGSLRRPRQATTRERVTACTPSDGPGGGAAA

Consider `CC(C)C[C@H](NC(=O)[C@@H]1CCCN1C(=O)[C@H](Cc1ccc(F)cc1)NC(=O)CNC(=O)[C@@H](C)NC(=O)[C@@H](N)Cc1ccc(O)cc1)C(=O)N[C@@H](Cc1c[nH]c2ccccc12)C(=O)NCc1cc(C(F)(F)F)cc(C(F)(F)F)c1`, for which the IC50 turned out to be 12 nM.

A word on the IC50: it is the midpoint of a concentration-inhibition curve.
